Source: article PMC6261997, “Synergistic enzymatic and bioorthogonal reactions for selective prodrug activation in living systems” (Nature Communications, 2018)
Read-outs that look alike come from different tables or passages of the source.

Experiments:
HeLa cells = assay: MTT cell viability / cytotoxicity assay, HeLa cells; assay type: cell-based; details: for EC50: Homo sapiens, HeLa; for EC50 ratio CCC-HEH-2/HeLa / EC50 ratio HUVECs/HeLa: ratio of 72 h EC50 values
Description: (§1) Cells were plated in flat-bottom 96-well plates at a density of 3 × 10^3 cells per well. After 12 h of cell attachment, the cell culture medium was replaced with 100 μL of pre-warmed media containing the compounds at different concentrations. After 24–72 h of incubation, cell proliferation was assessed by the MTT assay. A fresh mixture of 10 μL of thiazolyl blue tetrazolium bromide (MTT) and 90 μL of medium were freshly added to each well. After incubation for 4 h, the medium was gently removed. The formazan crystals that formed were dissolved in 110 μL of DMSO, and the absorbance was subsequently measured with a plate reader (Perkin Elmer) at 490 nm. EC50 values were calculated using Origin software. To measure the cytotoxicity of 2, HeLa cells, HUVECs, Saos-2 cells and CCC-HEH-2 cells were incubated with 100 μL of 1–500 μM 2 for 24 h, and then, cell viability was determined. To measure the cytotoxicity of TCO-Dox or Dox, HeLa cells, HUVECs, Saos-2 cells or CCC-HEH-2 cells were incubated with 200 μL of 0.001–10 μM TCO-Dox or Dox for 72 h, and the cell viability was determined. To determine the cytotoxicity of activated Dox, HeLa cells, HUVECs, […], and then, 2 was removed and 200 μL of 0.0001–10 μM TCO-Dox was added for 72 h of incubation, and cell viability was determined. […]
(§2) Prodrug activation efficacy in cells: Cells were plated on flat bottom 96-well plates at a
(§3) density of 3x10^3 cells per well. After 12 h attachment, cells were incubated with 100 µL
(§4) 500 µM of 2 for 6 h before removing 2 and the addition of 200 µL 0.0001-10 µM of […]

Saos-2 cells = assay: MTT cell viability / cytotoxicity assay, Saos-2 cells; assay type: cell-based; details: for EC50: Homo sapiens; for EC50 ratio CCC-HEH-2/Saos-2 / EC50 ratio HUVECs/Saos-2: ratio of 72 h EC50 values
Description: (§5) Cells were plated in flat-bottom 96-well plates at a density of 3 × 10^3 cells per well. After 12 h of cell attachment, the cell culture medium was replaced with 100 μL of pre-warmed media containing the compounds at different concentrations. After 24–72 h of incubation, cell proliferation was assessed by the MTT assay. A fresh mixture of 10 μL of thiazolyl blue tetrazolium bromide (MTT) and 90 μL of medium were freshly added to each well. After incubation for 4 h, the medium was gently removed. The formazan crystals that formed were dissolved in 110 μL of DMSO, and the absorbance was subsequently measured with a plate reader (Perkin Elmer) at 490 nm. EC50 values were calculated using Origin software. To measure the cytotoxicity of 2, HeLa cells, HUVECs, Saos-2 cells and CCC-HEH-2 cells were incubated with 100 μL of 1–500 μM 2 for 24 h, and then, cell viability was determined. To measure the cytotoxicity of TCO-Dox or Dox, HeLa cells, HUVECs, Saos-2 cells or CCC-HEH-2 cells were incubated with 200 μL of 0.001–10 μM TCO-Dox or Dox for 72 h, and the cell viability was determined. To determine the cytotoxicity of activated Dox, HeLa cells, HUVECs, Saos-2 cells or CCC-HEH-2 cells were pre-incubated with 100 μL of 500 μM 2 for 6 h, and then, 2 was removed and 200 μL of 0.0001–10 μM TCO-Dox was added for 72 h of incubation, and cell viability was determined. […]
Prodrug activation efficacy in cells: Cells were plated on flat bottom 96-well plates at a density of 3x10^3 cells per well. After 12 h attachment, cells were incubated with 100 µL 500 µM of 2 for 6 h before removing 2 and the addition of 200 µL 0.0001-10 µM of TCO-Dox. Cells were further incubated for 72 h before measuring the viability by the MTT […]
Clonogenic assay of cells in vitro: Clonogenic assay was performed according to the standard protocol.6 2×10^5 attached cells were treated with 500 µM of 2 for 6 h in culture dishes. Cells were then detached, re-suspended in cultural medium and counted accurately. The cell suspension was diluted into the desired seeding concentration and cells were seeded in 6-well plates at a density of 200 cells per well for CCC-HEH-2 and 400 cells per well for HeLa, Saos-2 and HUVECs. After incubation for 10 days, the cultural medium was removed and cells were rinsed carefully with PBS. 2 mL of a mixture of 6.0% (vol/vol) glutaraldehyde and 0.5% (wt/vol) crystal violet was added and kept for 30 min.
The glutaraldehyde crystal violet mixture was removed carefully. The colonies were rinsed with water and dried in normal air at room temperature. The number of the colonies was counted using a stereomicroscope.
When untreated cells are plated as a single-cell suspension at low densities, they will grow to colonies. The plating efficiency (PE) is the ratio of the number of colonies to the […]
(Supplementary Equation 1)
The number of colonies that arise after treatment of cells, expressed in terms of PE, is called the surviving fraction (SF): […]

CCC-HEH-2 cells = assay: MTT cell viability / cytotoxicity assay, CCC-HEH-2 cells; assay type: cell-based; details: Homo sapiens, read-out: EC50, CCC-HEH-2
Description: as §5

HUVECs = assay: MTT cell viability / cytotoxicity assay, HUVECs; assay type: cell-based; details: for EC50: Homo sapiens, HUVEC
Description: as §1, §2, §3, §4

HeLa tumours = assay: Tumour inhibition test, subcutaneous HeLa xenograft; assay type: in vivo, BALB/c nude mice; details: for tumour growth: i.v., three courses (day 0, 3, 6), 50 mg kg^−1 2, 30 mg kg^−1 TCO-Dox, 5 mg kg^−1 Dox, or 50 mg kg^−1 2 then 30 mg kg^−1 TCO-Dox after 2 h
Description: All animal studies were performed in accordance with the Institutional Animal Use and Care Regulations approved by the National Institutes of Health Clinical Center/Animal Care and Use Committee (NIH CC/ACUC). Athymic female nude mice (5–6 weeks old) were purchased from Beijing Huafukang Bioscience Co., Ltd., and raised in a specific-pathogen-free barrier facility. Tumour-bearing mice were established by subcutaneously injecting a suspension of 10^6 HeLa cells per mouse into the front flank of each nude mouse.
After 14 days, the mice were sacrificed.

[1] = Systemic toxicity in treated mice (body weight, death, organ histology)
Description: When the tumour volume reached approximately 80–100 mm^3, the mice were divided into five groups (n = 8) and used for therapeutic studies. Mice in the treatment group received an i.v. injection of 50 mg kg^−1 2 and a subsequent 30 mg kg^−1 TCO-Dox after a 2-h interval. In the control groups, mice were received 50 mg kg^−1 2, 30 mg kg^−1 TCO-Dox, 5 mg kg^−1 Dox or saline. The mice received three treatment courses on day 0, day 3 and day 6. Tumour size and body weight were measured every 2 days. After 14 days, the mice were sacrificed. Tumours and main organs were obtained for histological examination with HE staining.
Effect of the dosage of Dox to the mice body weight.
The arrows on x-axis marked the administrations of Dox (n= 8).
indicate standard deviation.
Histological examination of heart, liver, spleen, lung and
Organs were harvested after treatment at day 14 and stained by hematoxylin and

[2] = In vitro decaging of TCO-Dox by 2 (UPLC-MS); details: TCO-Dox mixed with 2 in 25% acetonitrile in H2O, 37 °C
Description: The Tz counterpart prodrug TCO-Dox was prepared according to previously published procedures using the axial tautomer of TCO[27]. After the selection of optimized Tz and TCO, the decaging reactions in our study were further characterized (Fig. 2d). After mixing 2 μL of 10 mM TCO-Dox with 2.5 μL of 20 mM 2 in 25% acetonitrile in H2O at 37 °C, the reaction mixture was analysed by ultra-performance liquid chromatography-mass spectrometry (UPLC-MS) at different time points. […] Similarly, we prepared TCO-caged coumarin (TCO-CMR, see Supplementary Methods for a detailed synthesis protocol)[23]. According to a previously developed fluorescence liberation, the fluorescence of coumarin was restored rapidly in the presence of Tz derivatives (Supplementary Fig. 6).

[3] = UPLC-MS/MS pharmacokinetic analyses in tumour, liver and plasma; assay type: in vivo, BALB/c nude mice; details: i.v. 30 mg kg-1 TCO-Dox
Description: For in vivo prodrug activation, mice received an i.v. injection of 50 mg kg^−1 2 and a subsequent 30 mg kg^−1 TCO-Dox after a 2-h interval. After different time intervals, blood samples were collected from the tail veins, and then, the tumours and livers were harvested for UPLC-MS/MS analysis.
UPLC-MS/MS analyses: UPLC-MS/MS metabolomic analyses were performed using a
multiple reaction-monitoring mode (MRM). Data acquisition and processing were performed using LabSolutions version 5 software. Measurements were carried out at
Dox, solvent A consisted of 0.1% formic acid in water and solvent B consisted of 0.1% formic acid in mass spectrometric grade acetonitrile; (2) for compound TCO-Dox, solvent A consisted of 100% water and solvent B consisted of 100% mass spectrometric grade acetonitrile. Injection volume was 2 or 10 L. The mass spectrometer was interfaced with the liquid chromatograph using an electrospray ion source. The nitrogen nebulizing gas flow was set at 10 L min-1 and the drying gas flow at 15 mL min-1. 4500 V were used for the interface voltage. The temperature of the block heater was maintained at 400 °C and the one of the desolvation line at 250 °C. The MRM transitions were
Dox. The collision gas used was argon at 230 kPa. The dwell time was set to 100 msec and the pause time to 3 msec.
Sample preparation: blood samples were collected from the tail vein of mice. Plasma […]

COc1cccc2c1C(=O)c1c(O)c3c(c(O)c1C2=O)C[C@@](O)(C(=O)CO)C[C@@H]3O[C@H]1C[C@H](N)[C@H](O)[C@H](C)O1 [Dox, doxorubicin, reference compound]
EC50 (HeLa cells; 72 h cytotoxicity, MTT, Activated Dox: cells pre-incubated with 500 μM 2 for 6 h, then TCO-Dox 72 h, read-out: EC50, HeLa): 732 nM
EC50 ratio CCC-HEH-2/HeLa (HeLa cells): 0.115
EC50 ratio HUVECs/HeLa (HeLa cells): 0.182
EC50 (Saos-2 cells; SAOS-2, 72 h cytotoxicity, MTT, Activated Dox: cells pre-incubated with 500 μM 2 for 6 h, then TCO-Dox 72 h, read-out: EC50, Saos-2): 425 nM
EC50 ratio CCC-HEH-2/Saos-2 (Saos-2 cells): 0.198
EC50 ratio HUVECs/Saos-2 (Saos-2 cells): 0.313
EC50 (CCC-HEH-2 cells; 72 h cytotoxicity, MTT, Activated Dox: cells pre-incubated with 500 μM 2 for 6 h, then TCO-Dox 72 h): 84 nM
EC50 (HUVECs; 72 h cytotoxicity, MTT, Activated Dox: cells pre-incubated with 500 μM 2 for 6 h, then TCO-Dox 72 h, read-out: EC50, HUVECs): 133 nM
tumour growth (HeLa tumours): tumour growth could be inhibited
death of mice ([1]; 6.0 mg kg-1 Dox): the mice began to die eleven day
death of mice ([1]; 7.5 mg kg-1 Dox): the mice began to die six
death of mice ([1]; 15 mg kg-1 Dox): the mice died within five days

COc1cccc2c1C(=O)c1c(O)c3c(c(O)c1C2=O)CC(O)(C(=O)CO)CC3OC1CC(NC(=O)OC2C=CCCCCC2)C(O)C(C)O1 (stereo not shown) [TCO-Dox]
EC50 higher than that of Dox, HeLa cells (HeLa cells; 72 h): ~10 fold
EC50 (HeLa cells; read-out: EC50, HeLa, 72 h cytotoxicity, MTT, Activated Dox: cells pre-incubated with 500 μM 2 for 6 h, then TCO-Dox 72 h): 6790 nM
EC50 (HeLa cells; read-out: EC50 against HeLa cells, cells pre-incubated with 300 μM 2 for 6 h, then TCO-Dox 72 h): 1200 nM
EC50 (HeLa cells; read-out: EC50 against HeLa cells, cells pre-incubated with 500 μM 2 for 6 h, then TCO-Dox 72 h): 29.8 nM
EC50 against HeLa cells with 300 μM 2 higher than with 500 μM 2 (HeLa cells; pre-incubation 6 h, then TCO-Dox 72 h): approximately 40 fold
EC50 ratio CCC-HEH-2/HeLa (HeLa cells): 0.908
EC50 ratio HUVECs/HeLa (HeLa cells): 0.855
EC50 (Saos-2 cells; SAOS-2, read-out: EC50, Saos-2): 7570 nM
EC50 ratio CCC-HEH-2/Saos-2 (Saos-2 cells): 0.815
EC50 ratio HUVECs/Saos-2 (Saos-2 cells): 0.767
EC50 (CCC-HEH-2 cells): 6170 nM
EC50 higher than that of Dox, HUVECs (HUVECs; 72 h): more than 40 fold
EC50 (HUVECs; read-out: EC50, HUVECs, 72 h cytotoxicity, MTT, Activated Dox: cells pre-incubated with 500 μM 2 for 6 h, then TCO-Dox 72 h): 5810 nM
EC50 (HUVECs; read-out: EC50 against HUVECs, cells pre-incubated with 300 μM 2 for 6 h, then TCO-Dox 72 h): 367 nM
EC50 (HUVECs; read-out: EC50 against HUVECs, cells pre-incubated with 500 μM 2 for 6 h, then TCO-Dox 72 h): 272 nM
time to complete liberation of Dox [2]: ≤ 2 min
concentration of TCO-Dox in plasma [3]: relatively high concentration of TCO-Dox remaining in the blood
histological examination of dissected tumours (HE staining) (HeLa tumours; after treatment for 14 days): the HeLa cells remained normal
tumour growth (HeLa tumours): rapid growth similar to that observed in the saline control group
